The values below come from US11623008B2, “Excipient compositions for mucoadhesive pharmaceutical compositions including a synergistic combination of amylopectin, pullulan, hyaluronic acid, and xyloglucan” (Professional Compounding Centers of America (PCCA), priority 2014, dated 2023).

In series [1] the test system is EpiOral tissue model (ORL-200), human oral mucosa. As to the kind of experiment: Safety and toxicological profile on human oral mucosa (MTT cell viability). In kind it is cell-based. Particulars: excipient composition at 50%, Triton X-100 at 1%; for mean percent viability: mean of two experiments. The procedure:
This study was conducted to evaluate the safety and toxicological profile of disclosed excipient compositions in comparison to Triton X-100 (positive control) and distilled water (negative control), using a 3D model of the human oral mucosa. Triton X-100 is a non-ionic surfactant, which is not approved for oral use.
Methodology: The materials used in this study include EpiOral™ tissue samples, disclosed excipient composition (Lot: 6481454) at 50% (diluted in distilled water), and Triton X-100 at 1%. The EpiOral™ tissue model (ORL-200) comprises of normal human-derived non-keratinized oral epithelial cells, cultured and differentiated to resemble the native buccal tissue of the human oral mucosa. Following tissue preparation, 40 μL of disclosed excipient composition at 50% and Triton X-100 at 1% were applied onto separate EpiOral tissue samples and left to incubate at 37° C. Incubation intervals were 1, 4.5, and 20 hours. Application of distilled water on an EpiOral tissue served as the negative control. After the allotted exposure time, each tissue was rinsed twice with phosphate buffer saline (PBS) and excess liquid was removed. Afterwards, 300 μL of 3-[4,5-dimethylthiazol-2yl]-2,5-diphenyltetrazolium bromide (MTT) solution was added to the EpiOral tissues and left to incubate for 3 hours. MTT was used as an indicator of cell viability. Succinate dehydrogenase enzymes within the mitochondria of viable cells have the ability to reduce soluble yellow tetrazonium salt of MTT to an insoluble purple formazan derivative. After 3 hours of exposure to MTT, the tissues were immersed in 2 mL of extraction solution, sealed in a plastic bag, and stored at room temperature overnight. The excess liquid was then decanted and the remaining extractant solution was agitated. A 200 μL aliquot of each extract was evaluated using a Molecular Device SpectraMax® M5 Microplate Reader. This device quantifies the absorbance potential of the samples at 570 nm, a wavelength absorbed by reduced MTT. This experiment was repeated two months following initial testing using identical methodology and the Electrolyte Saliva Gel (PCCA Formula #11150), which consists of sodium chloride, potassium chloride, calcium chloride, and a flavor extract in disclosed excipient composition (Lot: 6481454) at 50% (diluted in distilled water).
Results and Discussion: Toxicological profiles for disclosed excipient composition and the positive control, Triton X-100 at 1%, were compared by examining absorbancy potentials of the extracts collected from both experiments. […] Mean percent cell viabilities were calculated for the two experiments and are illustrated in FIG. 3. […]

Series [2] deals with EpiVaginal tissue model, human vaginal mucosa. As to the kind of experiment: Safety and toxicological profile on human vaginal mucosa (MTT cell viability). Particulars: Triton X-100 at 1%. It is filed as cell-based. As to the method:
This study was conducted to evaluate the safety and toxicological profile of disclosed excipient compositions in comparison to Triton X-100 (positive control) by employing the EpiVaginal™ tissue model, developed by the MatTek Corporation (Ashland, Mass., USA), which is a highly differentiated 3D model of the human vaginal mucosa. The EpiVaginal™ multi-layered tissue model comprises normal, human-derived vaginal-ectocervical (VEC) epithelial and dendritic cells (DC), cultured and differentiated to resemble the growth and morphological characteristics of the human vaginal mucosa. Triton X-100 is a non-ionic surfactant that can be used as a solubilizer, stabilizer, and emulsifier.
Methodology: Following tissue preparation, within a 6-well plate, 100 μL of disclosed excipient composition at 100% and Triton X-100 at 1% were applied onto separate EpiVaginal tissue samples and left to incubate at 37° C. for 45 minutes to 20 hours. Following incubation, tissues were rinsed twice with Phosphate Buffer Saline (PBS) and excess liquid was removed. A 300 μL of 3-[4,5-dimethylthiazol-2yl]-2,5-diphenyltetrazolium bromide (MTT) solution was then added to the tissues and left to incubate for 3 hours. MTT served as an indicator of cell viability. Succinate dehydrogenase enzymes within the mitochondria of viable cells have the ability to reduce soluble yellow tetrazonium salt of MTT to an insoluble purple formazan derivative. Tissues were then immersed in 2 mL of extraction solution and sealed in a plastic bag to soak overnight at room temperature. Excess liquid was decanted the following day, the remaining extractant solution was agitated, and 200 μL aliquot of each extract was evaluated with a Molecular Device SpectraMax® M5 Microplate Reader. This device quantifies the absorbance potential of the samples at 570 nm, a wavelength absorbed by the formazan derivative.

Consider Triton X-100, for which the mean percent viability in series [1] (1 hour exposure) was determined as 117%; in series [1] (4.5 hours exposure), 30%; in series [1] (20 hours exposure), 6%. Besides, the “ET50, the time at which percent viability would be 50%” value in series [1] (estimated from semi-log plot) is 3.2 h. In addition, the percent cell viability in series [2] (45 minutes exposure) was found to be 97%; in series [2] (2 hours exposure), 26%. In series [2] (estimated from semi-log plot), the “ET50, time when percent cell viability is reduced to 50%” value is 86.4 min.
